From paper PMC7674464, “Effect of pH on the influenza fusion peptide properties unveiled by constant-pH molecular dynamics simulations combined with experiment” (Scientific Reports, 2020)
Like-named read-outs stand apart in the source and are kept apart here. Where no end group is shown, it is not given here.

Experiments:
[1] = 16000 nM, pH 7.4
[2] = not given; remark: listed apart in the source
Nterm1 = Nterm1 (UniProt position 344, SIQSRGLFGAI); test: NMR; conditions: micelle-bound peptide with lysine tail; cited from earlier work
Glu11 = Glu11 (UniProt position 354, IAGFIEGGWTG); test: NMR; conditions: micelle-bound peptide with lysine tail; cited from earlier work
Asp19 = Asp19 (UniProt position 362, WTGMIDGWYGY); test: NMR; conditions: micelle-bound peptide with lysine tail; cited from earlier work

Row | Substance | amide I band peak position | percentage of lipid mixing [1] | partition coefficient (Kp) between the aqueous and lipid phases ([2]; pH 5) | partition coefficient (Kp) between the aqueous and lipid phases ([2]; pH 7.4) | pKa (Nterm1) | pKa (Glu11) | pKa (Asp19)
1 | GLFGAIAGFIEGGWTGMIDGWYGS [influenza fusion peptide] | 1660 cm⁻¹ | 23.9 ± 1.8% | (1.0 ± 0.1) × 10^4 | (2.9 ± 0.4) × 10^4 |  |  | 
2 | Influenza hemagglutinin HA2 fusion peptide (HAfp23) with C-terminal hydrophilic lysine tail (Influenza A virus (subtype H1; strain not stated)) |  |  |  |  | 8.8 | 5.31 | 4.35
